# Results: patent publication US11185552B2, “Inhibitors of glucose-6-phosphate dehydrogenase for treating cardiovascular and pulmonary conditions” (ICHOR, LLC., priority 2016, dated 2021)
# Legend:
# [1] = system: Bovine pulmonary artery rings; assay: Relaxation of KCl pre-contracted bovine pulmonary artery rings; conditions: pre-contracted with KCl (30 mM), Krebs buffer
# Description: FIG. 6 is a graph showing bovine pulmonary artery rings that were incubated in Krebs buffer and pre-contracted with KCl (30 mM). These pre-contracted rings relaxed by G6PD inhibitors; PD109 (109), PD2124 (2124), PD2958 (2958) and PD4091 (4091) or dehydroepiandrosterone (DHEA).
# Bovine pulmonary artery rings were incubated in Krebs buffer and pre-contracted with KCl (30 mM). These pre-contracted rings relaxed by G6PD inhibitors; PD109 (109), PD2124 (2124), PD2958 (2958) and PD4091 (4091) or dehydroepiandrosterone (DHEA) (FIG. 6).
# [2] = system: Rat pulmonary artery smooth muscle cells; assay: Cell number/proliferation by Cyquant assay; format: cell-based; conditions: 72 hr treatment, versus vehicle control
# Description: (§1) FIGS. 4A and 4B are graphs showing results for rat pulmonary artery smooth muscle cells that were cultured in 15% DMEM media for 48 hr and cells were treated with newly synthesized G6PD drugs; PD109 (109), PD2124 (2124), PD2958 (2958) and PD4091 (4091) or vehicle control (Con) for 72 hr. Cell number/proliferation (FIG. 4A) and apoptosis (FIG. 4B) was determined by Cyquant and Caspase3/7 assay, respectively. Cell numbers were decreased by G6PD inhibitors (FIG. 4A). Cell apoptosis was increased by PD2958 (1 microM) N=5 in each group (FIG. 4B).
# as §1, with “Rat” for “FIGS. 4A and 4B are graphs showing results for rat”, “cells” for “cells that”, “number/proliferation” for “number/proliferation (FIG. 4A)”, “apoptosis” for “apoptosis (FIG. 4B)”, “inhibitors.” for “inhibitors (FIG. 4A).”, “(FIGS. 4A and” for “(FIG.”
# [3] = target: G6PD (Homo sapiens, UniProt P11413); assay: G6PD activity inhibition (enzyme assay)
# [4] = system: mice with pulmonary hypertension; assay: Hypoxia (10% O2) pulmonary hypertension in mice; format: in vivo; conditions: S.C. 1.3 mg/Kg for 1 wk from wk 4 to wk 5, 10% O2
# Description: Placebo and 2124 were injected S.C. (1.3 mg/Kg) for 1 wk from wk 4 to wk 5.
# [5] = system: Bovine pulmonary arteries; assay: Smooth muscle protein expression in bovine pulmonary arteries incubated in Krebs buffer; conditions: 12 hr
# Description: FIGS. 3A and 3B are graphs showing results for bovine pulmonary arteries that were incubated in Krebs buffer with and without G6PD inhibitor PD2958 (2958) and PD2124 (2124) for 12 hr. Vascular smooth cell-specific protein myocardin (MYOCD; FIG. 3A) and smooth muscle myosin heavy chain (MHY11; FIG. 3B) expression was increased by PD2958 (10 microM) and PD2124 (1 microM).
# Bovine pulmonary arteries were incubated in Krebs buffer with and without G6PD inhibitor PD2958 (2958) and PD2124 (2124) for 12 hr. Vascular smooth cell-specific protein myocardin (MYOCD) and smooth muscle myosin heavy chain (MHY11) expression was increased by PD2958 (10 microM) and PD2124 (1 microM) (FIGS. 3A and 3B).
# [6] = system: Aortic rings of G6PD-deficient mice; assay: Relaxation of KCl pre-contracted aortic rings, G6PD-deficient mice; conditions: KCl (30 mM)
# Description: (§2) FIG. 7 is a graph showing aortic rings of wild-type and G6PD-deficient pre-contracted with KCl (30 mM).
# (§3) Aortic rings of wild-type and G6PD-deficient pre-contracted with KCl (30 mM).
# [7] = system: Rat pulmonary artery smooth muscle cells; assay: Apoptosis by Caspase3/7 assay; format: cell-based; conditions: 1 microM, 72 hr, N=5
# Description: as §1
# as §1, with “Rat” for “FIGS. 4A and 4B are graphs showing results for rat”, “cells” for “cells that”, “number/proliferation” for “number/proliferation (FIG. 4A)”, “apoptosis” for “apoptosis (FIG. 4B)”, “inhibitors.” for “inhibitors (FIG. 4A).”, “(FIGS. 4A and” for “(FIG.”
# [8] = system: Rat pulmonary artery smooth muscle cells; assay: Cell migration; format: cell-based; conditions: 1 microM, 72 hr, N=5
# Description: (§4) FIGS. 5A and 5B are images (FIG. 5A) and a graph (FIG. 5B) showing rat pulmonary artery smooth muscle cells that were cultured in 15% DMEM media for 48 hr and cells were treated with newly synthesized G6PD drugs; PD2958 (2958) or vehicle control (Con) for 72 hr. Cells migration was determined. Cell migration was abrogated by PD2958 (1 microM). N=5 in each group.
# as §4, with “Rat” for “FIGS. 5A and 5B are images (FIG. 5A) and a graph (FIG. 5B) showing rat”, “cells” for “cells that”, “group (FIGS. 5A and 5B).” for “group.”
# [9] = system: Aortic rings of wild-type mice; assay: Relaxation of KCl pre-contracted aortic rings, wild-type mice; conditions: KCl (30 mM)
# Description: as §2, §3
# Sequence of G6PD (P11413 whole entry): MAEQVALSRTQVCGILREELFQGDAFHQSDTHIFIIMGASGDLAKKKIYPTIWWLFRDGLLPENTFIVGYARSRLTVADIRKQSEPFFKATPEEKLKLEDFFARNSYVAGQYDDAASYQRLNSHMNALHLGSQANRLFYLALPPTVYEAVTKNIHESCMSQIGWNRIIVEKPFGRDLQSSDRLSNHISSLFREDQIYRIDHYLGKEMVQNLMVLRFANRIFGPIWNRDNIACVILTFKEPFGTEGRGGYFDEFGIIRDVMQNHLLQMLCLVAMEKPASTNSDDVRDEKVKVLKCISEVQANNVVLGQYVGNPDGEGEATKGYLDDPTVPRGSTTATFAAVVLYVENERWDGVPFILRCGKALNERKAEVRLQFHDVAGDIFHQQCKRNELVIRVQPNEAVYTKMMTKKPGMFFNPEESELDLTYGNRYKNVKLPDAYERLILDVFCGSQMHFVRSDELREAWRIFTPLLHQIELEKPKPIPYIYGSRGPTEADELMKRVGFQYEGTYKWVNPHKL
structure (smiles),measurement,setting,value
"C[C@]12CC[C@H](O)CC1=CC[C@@H]1[C@@H]2CC[C@]2(C)C(=O)CC[C@@H]12 [PD109, 5-Androsten-3-beta-hydroxy-17-one (Dehydroepiandrosterone), reference compound]",relaxation of pre-contracted pulmonary artery rings,[1],relaxed
same,Cell number/proliferation,[2],decreased
"C[C@]12CC[C@H](O)C[C@@H]1CC[C@@H]1[C@@H]2CC[C@]2(C)[C@@H](C(=O)CO)CC[C@@H]12 [PD2124, (3β,5α)-3,21-Dihydroxypregnan-20-one]",IC50,[3],1 to 10 µM
same,TPR,[4],reduced and reversed
same,arterial elastance,[4],reduced and reversed
same,cardiac index,[4],increased
same,left ventricle (LV) stiffness,[4],reduced and reversed
same,pulmonary resistance determined as PAAT-to-ET ratio,[4],reduced and reversed
same,relaxation of pre-contracted pulmonary artery rings,[1],relaxed
same,myocardin (MYOCD) expression,[5]; 1 microM,increased
same,smooth muscle myosin heavy chain (MHY11) expression,[5]; 1 microM,increased
same,Cell number/proliferation,[2],decreased
"CCNC(=O)N[C@H]1CC[C@@]2(C)[C@@H](CC[C@@H]3[C@@H]2CC[C@]2(C)C(=O)CC[C@@H]32)C1 [PD2958, N-Ethyl-N′-[(3β,5α)-17-oxoandrostan-3-yl]urea]",relaxation of pre-contracted aortic rings,[6],not G6PD-deficient mice were relaxed
same,IC50,[3],1 to 10 µM
same,relaxation of pre-contracted pulmonary artery rings,[1],relaxed
same,Cell apoptosis,[7],increased
same,myocardin (MYOCD) expression,[5]; 10 microM,increased
same,smooth muscle myosin heavy chain (MHY11) expression,[5]; 10 microM,increased
same,Cell migration,[8],abrogated
same,Cell number/proliferation,[2],decreased
same,relaxation of pre-contracted aortic rings,[9],relaxed in dose-dependent manner
"CC(=O)[C@H]1CC[C@H]2[C@@H]3CC[C@H]4C[C@@H](NS(C)(=O)=O)CC[C@]4(C)[C@H]3CC[C@]12C [PD4091, N-[(3β,5α)-20-Oxopregnan-3-yl]methanesulfonamide]",IC50,[3],1 to 10 µM
